The text below walks through data of US20050267221A1, “Use of curcumin and analogues thereof as inhibitors of ACC2” (Research Development Foundation, priority 2004, published 2005).

For one data set, the target named is recombinant human ACC2 (Homo sapiens, UniProt O00763). Description: Radioactive assay of ACC2 activity ([14C]KHCO3 incorporation into malonyl-CoA). The class given is biochemical. The protocol:
The reaction mixture contained 50 mM HEPES, pH 7.5, 2.5 mM MnCl2, 2.0 mM DTT, 0.125 mM acetyl-CoA, 4.0 mM ATP, 12.5 mM [^14C]KHCO3 (4×10^6 dpm), 0.75 mg/mL BSA, 10 mM tripotassium citrate and 0.1-0.2 μg ACC enzyme, in a total volume of 150 μL. The reaction was initiated by the addition of ACC2 and the assay was carried out at 37° C. for 2-7 min. The reaction was stopped by the addition of 50 μL of 6 N HCl. Subsequently, 150 μL was transferred into a glass scintillation vial and evaporated to dryness by heating to 85° C. in a heating block for 1 hour. The dried vials were cooled, 0.5 mL of water and 5 mL of ScintiSafe™ 30% were added, and the radioactivity was determined in a Beckman liquid scintillation counter (LS 3801). The tubes, where HCl was added before the addition of acetyl-CoA carboxylase, served as blanks. Avicin G and curcumin inhibitors were made up as stock solutions in water and DMSO, respectively, and added to the assay at the indicated concentrations such that the DMSO concentration was 1% (v/v). All reactions were performed in duplicate. Enzyme activity was based on radioactivity detected in malonyl-CoA and the dpm's set to 100% activity in the absence of any test compound. Inhibition by 1% (v/v) DMSO which was 16% was subtracted from values obtained in the dose response study.
A dose-response series was conducted with curcumin (in DMSO) to verify a classical inhibition pattern. In this study, all curcumin concentrations were added in 1% (v/v) DMSO and the enzyme activity measured.
The radioactive assay (as described in Example 3) was used to determine effects of the test compounds, avicin G and curcumin, on human acetyl-CoA carboxylase 2.

The conditions of data set [1]: cited from earlier work.

recombinant human ACC2, sequence (O00763 whole entry): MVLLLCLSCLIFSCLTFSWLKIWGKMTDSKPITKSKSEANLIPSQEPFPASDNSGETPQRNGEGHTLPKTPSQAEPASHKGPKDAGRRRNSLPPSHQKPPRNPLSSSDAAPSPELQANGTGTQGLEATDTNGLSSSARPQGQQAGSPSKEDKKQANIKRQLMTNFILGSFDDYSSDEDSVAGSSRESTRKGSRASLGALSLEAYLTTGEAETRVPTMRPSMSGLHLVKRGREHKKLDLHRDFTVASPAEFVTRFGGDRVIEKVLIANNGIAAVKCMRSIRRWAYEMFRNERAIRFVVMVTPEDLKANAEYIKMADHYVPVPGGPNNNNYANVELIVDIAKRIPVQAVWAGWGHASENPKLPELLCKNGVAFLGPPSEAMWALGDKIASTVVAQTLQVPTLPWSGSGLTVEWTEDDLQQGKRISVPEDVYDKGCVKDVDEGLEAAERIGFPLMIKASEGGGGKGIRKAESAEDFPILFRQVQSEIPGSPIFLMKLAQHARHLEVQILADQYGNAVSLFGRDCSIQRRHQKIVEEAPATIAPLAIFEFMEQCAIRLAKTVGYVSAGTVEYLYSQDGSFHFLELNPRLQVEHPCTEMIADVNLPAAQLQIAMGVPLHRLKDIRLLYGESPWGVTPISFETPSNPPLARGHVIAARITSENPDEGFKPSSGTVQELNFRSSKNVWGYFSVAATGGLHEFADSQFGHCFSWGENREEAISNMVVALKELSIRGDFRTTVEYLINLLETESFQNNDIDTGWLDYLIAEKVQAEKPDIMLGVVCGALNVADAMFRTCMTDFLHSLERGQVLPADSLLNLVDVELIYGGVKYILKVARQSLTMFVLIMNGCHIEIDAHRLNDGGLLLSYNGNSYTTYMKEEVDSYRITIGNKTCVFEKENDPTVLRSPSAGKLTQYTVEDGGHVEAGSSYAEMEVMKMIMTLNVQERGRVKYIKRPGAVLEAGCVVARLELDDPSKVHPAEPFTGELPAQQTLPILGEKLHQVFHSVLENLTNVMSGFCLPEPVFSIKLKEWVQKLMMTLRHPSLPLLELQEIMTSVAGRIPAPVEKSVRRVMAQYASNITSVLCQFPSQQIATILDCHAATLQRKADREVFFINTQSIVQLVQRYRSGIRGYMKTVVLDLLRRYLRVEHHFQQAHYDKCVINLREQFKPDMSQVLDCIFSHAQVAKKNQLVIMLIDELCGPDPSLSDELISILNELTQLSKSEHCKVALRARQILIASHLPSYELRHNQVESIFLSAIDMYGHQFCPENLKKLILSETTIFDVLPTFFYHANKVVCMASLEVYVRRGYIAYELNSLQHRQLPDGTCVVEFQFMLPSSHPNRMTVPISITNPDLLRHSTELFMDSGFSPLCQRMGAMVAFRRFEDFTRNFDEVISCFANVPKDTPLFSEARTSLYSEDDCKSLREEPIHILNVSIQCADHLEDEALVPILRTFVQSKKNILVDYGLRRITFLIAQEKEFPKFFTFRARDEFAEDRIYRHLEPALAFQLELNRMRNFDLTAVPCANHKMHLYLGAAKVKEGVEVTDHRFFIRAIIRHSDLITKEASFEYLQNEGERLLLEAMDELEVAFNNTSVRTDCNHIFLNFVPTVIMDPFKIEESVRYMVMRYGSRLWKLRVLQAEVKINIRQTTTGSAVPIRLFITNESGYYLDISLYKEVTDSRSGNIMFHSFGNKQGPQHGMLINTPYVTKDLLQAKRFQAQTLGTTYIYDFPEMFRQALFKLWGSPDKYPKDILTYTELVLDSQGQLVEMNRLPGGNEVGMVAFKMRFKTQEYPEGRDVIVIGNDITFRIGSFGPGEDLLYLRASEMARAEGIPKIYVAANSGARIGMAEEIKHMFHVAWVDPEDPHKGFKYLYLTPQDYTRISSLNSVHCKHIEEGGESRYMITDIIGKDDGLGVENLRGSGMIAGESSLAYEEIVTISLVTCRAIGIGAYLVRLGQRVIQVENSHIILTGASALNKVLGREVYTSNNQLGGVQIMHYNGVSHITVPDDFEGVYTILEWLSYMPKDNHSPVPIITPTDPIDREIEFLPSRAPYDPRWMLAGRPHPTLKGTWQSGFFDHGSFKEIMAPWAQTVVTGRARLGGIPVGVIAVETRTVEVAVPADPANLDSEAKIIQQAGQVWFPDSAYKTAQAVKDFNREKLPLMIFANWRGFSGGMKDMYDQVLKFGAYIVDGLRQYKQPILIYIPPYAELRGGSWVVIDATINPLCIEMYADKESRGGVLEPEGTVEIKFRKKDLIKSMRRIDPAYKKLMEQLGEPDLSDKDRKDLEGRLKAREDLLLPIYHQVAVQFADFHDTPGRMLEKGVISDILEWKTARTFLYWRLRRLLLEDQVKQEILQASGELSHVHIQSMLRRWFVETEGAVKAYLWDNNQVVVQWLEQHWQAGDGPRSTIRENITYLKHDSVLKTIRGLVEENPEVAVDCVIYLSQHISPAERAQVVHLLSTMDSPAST

On to `C=C[C@](C)(O)CC/C=C(\C)C(=O)O[C@H]1[C@H](O)[C@@H](O)[C@H](O[C@@](C)(C=C)CC/C=C(\CO)C(=O)O[C@H]2C[C@]3(C(=O)O[C@@H]4O[C@H](CO)[C@@H](O)[C@H](O)[C@H]4O[C@@H]4O[C@@H](C)[C@H](O[C@@H]5O[C@@H](CO)[C@H](O)[C@H]5O)[C@@H](O[C@@H]5O[C@H](CO)[C@@H](O)[C@H](O)[C@H]5O)[C@H]4O)[C@H](O)C[C@]4(C)C(=CC[C@@H]5[C@@]6(C)CC[C@H](O[C@@H]7O[C@H](CO[C@@H]8O[C@H](C)[C@H](O)[C@H](O)[C@H]8O[C@@H]8OC[C@@H](O)[C@H](O)[C@H]8O)[C@@H](O)[C@H](O)[C@H]7NC(C)=O)C(C)(C)[C@@H]6CC[C@]54C)[C@@H]3CC2(C)C)O[C@@H]1C` [avicin G], for which the “ACC Activity (%) ± S.D.” value at recombinant human ACC2 (human ACC2, additive at 50 μM, curcumin in 1% (v/v) DMSO final, activity without test compound = 100%, duplicate) is 106 ± 7%. Also, the “dose-response inhibition of ACC2 (in words)” value on recombinant human ACC2 (human ACC2, dose-response series, all concentrations in 1% (v/v) DMSO, FIG. 1) is recorded as “No significant inhibition”. Moreover, at recombinant human ACC2 (recombinant human ACC2, radioactive assay, conditions of Table 1), the “effect on ACC2 activity (in words)” value is given as “no significant effect”.
On to `COc1cc(/C=C/C(=O)CC(=O)/C=C/c2ccc(O)c(OC)c2)ccc1O` [curcumin, 1,7,-bis(4-hydroxy-3-methoxyphenyl)-1,6-heptadiene-3,5-dione], for which the activity at 50 µM on recombinant human ACC2 (human ACC2, additive at 50 μM, curcumin in 1% (v/v) DMSO final, activity without test compound = 100%, duplicate, read-out: ACC Activity (%) ± S.D.) amounted to 57 ± 3%. The solubility in dimethylsulfoxide result in data set [1] (dimethylsulfoxide) was “soluble”. The solubility in ethanol entry in data set [1] (ethanol) is reported as “soluble”. In addition, the solubility in ether entry in data set [1] (ether) was “insoluble”. In data set [1] (water), the solubility in water result was “insoluble”.
